# Results: patent US20250270200A1, “CTPS1 INHIBITORS AND USES THEREOF” (Nimbus Clotho, Inc., priority 2022, published 2025)
# Counter-ions that a name gives are not always drawn.
# Target: T1, human CTPS1 (Homo sapiens, UniProt P17812)
# T1 sequence (P17812 1-591): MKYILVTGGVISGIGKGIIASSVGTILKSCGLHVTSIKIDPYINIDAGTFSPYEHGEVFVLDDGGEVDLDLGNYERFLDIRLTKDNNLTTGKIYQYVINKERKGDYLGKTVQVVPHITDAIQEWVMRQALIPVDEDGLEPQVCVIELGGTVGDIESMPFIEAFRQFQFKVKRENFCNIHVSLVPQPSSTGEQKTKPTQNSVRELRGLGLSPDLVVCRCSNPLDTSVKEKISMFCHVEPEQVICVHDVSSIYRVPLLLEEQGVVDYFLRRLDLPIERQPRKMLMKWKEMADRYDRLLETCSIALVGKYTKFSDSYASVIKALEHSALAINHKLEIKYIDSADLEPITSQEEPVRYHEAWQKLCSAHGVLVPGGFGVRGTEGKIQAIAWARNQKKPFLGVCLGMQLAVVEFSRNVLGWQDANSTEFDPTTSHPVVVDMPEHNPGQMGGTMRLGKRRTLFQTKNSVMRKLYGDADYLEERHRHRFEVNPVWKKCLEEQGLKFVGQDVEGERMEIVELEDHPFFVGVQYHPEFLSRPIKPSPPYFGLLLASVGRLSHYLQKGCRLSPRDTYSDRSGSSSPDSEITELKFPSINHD
# Experiment: ADP-Glo assay, human CTPS1 enzyme inhibition
# Type: biochemical
# Conditions: wild-type human CTPS1, 25 nM enzyme; ADP-Glo; read-out: ADP-Glo_WT_hCTPS1—25 nM_IC50 (IC50)
# Method in brief: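 ADP-Glo luminescence quantified ADP produced by 25 nM purified human CTPS1 (full length, FLAG-His tagged) at 25° C within the linear phase. Final substrates: ATP 120 μM, UTP 160 μM, GTP 60 μM, L-glutamine 100 μM; 1% DMSO; pH 7.4 HEPES buffer with Mg2+, KCl, DTT. Compound pre-incubated with enzyme 10 min, then with ATP/UTP 10 min.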
row,IC50 [nM],Structure (SMILES)
1,50 to 100,"O=C(N[C@@H](CN1CCCC1)c1cc(NS(=O)(=O)C2CC2)ccn1)c1ncc(-c2cnn3ccc(Cl)cc23)s1 [I-162, (S)-5-(5-chloropyrazolo[1,5-a]pyridin-3-yl)-N-(1-(4-(cyclopropanesulfonamido)pyridin-2-yl)-2-(pyrrolidin-1-yl)ethyl)thiazole-2-carboxamide]"
2,25 to 50,"O=C(N[C@H](CN1CCCC1)c1cc(NS(=O)(=O)C2CC2)ccn1)c1ncc(-c2cnn3ccc(Cl)cc23)s1 [I-163, (R)-5-(5-chloropyrazolo[1,5-a]pyridin-3-yl)-N-(1-(4-(cyclopropanesulfonamido)pyridin-2-yl)-2-(pyrrolidin-1-yl)ethyl)thiazole-2-carboxamide]"
3,50 to 100,"CN(C)C[C@H](NC(=O)c1ncc(-c2cnn3ccc(Cl)cc23)s1)c1cc(NS(=O)(=O)C2CC2)ccn1 [I-164, (S)-5-(5-chloropyrazolo[1,5-a]pyridin-3-yl)-N-(1-(4-(cyclopropanesulfonamido)pyridin-2-yl)-2-(dimethylamino)ethyl)thiazole-2-carboxamide, formic acid salt]"
4,5 to 25,"CN(C)C[C@@H](NC(=O)c1ncc(-c2cnn3ccc(Cl)cc23)s1)c1cc(NS(=O)(=O)C2CC2)ccn1 [I-165, (R)-5-(5-chloropyrazolo[1,5-a]pyridin-3-yl)-N-(1-(4-(cyclopropanesulfonamido)pyridin-2-yl)-2-(dimethylamino)ethyl)thiazole-2-carboxamide, formic acid salt]"
5,50 to 100,"CCOc1cncc(-c2cnc(C(=O)N[C@H](c3cc(NS(=O)(=O)C4CC4)ccn3)[C@H](C)N3C[C@H]4C[C@@H]3CO4)s2)n1 [I-166, N-((1S,2S)-2-((1R,4R)-2-oxa-5-azabicyclo[2.2.1]heptan-5-yl)-1-(4-(cyclopropanesulfonamido)pyridin-2-yl)propyl)-5-(6-ethoxypyrazin-2-yl)thiazole-2-carboxamide]"
6,25 to 50,"CCOc1cncc(-c2cnc(C(=O)N[C@H](c3cc(NS(=O)(=O)C4CC4)ccn3)[C@@H](C)N3C[C@H]4C[C@@H]3CO4)s2)n1 [I-167, N-((1S,2R)-2-((1R,4R)-2-oxa-5-azabicyclo[2.2.1]heptan-5-yl)-1-(4-(cyclopropanesulfonamido)pyridin-2-yl)propyl)-5-(6-ethoxypyrazin-2-yl)thiazole-2-carboxamide]"
7,5 to 25,"CCOc1cncc(-c2cnc(C(=O)N[C@@H](c3cc(NS(=O)(=O)C4CC4)ccn3)[C@H](C)N3C[C@H]4C[C@@H]3CO4)s2)n1 [I-168, N-((1R,2S)-2-((1R,4R)-2-oxa-5-azabicyclo[2.2.1]heptan-5-yl)-1-(4-(cyclopropanesulfonamido)pyridin-2-yl)propyl)-5-(6-ethoxypyrazin-2-yl)thiazole-2-carboxamide]"
8,25 to 50,"CCOc1cncc(-c2cnc(C(=O)N[C@@H](c3cc(NS(=O)(=O)C4CC4)ccn3)[C@@H](C)N3C[C@H]4C[C@@H]3CO4)s2)n1 [I-169, N-((1R,2R)-2-((1R,4R)-2-oxa-5-azabicyclo[2.2.1]heptan-5-yl)-1-(4-(cyclopropanesulfonamido)pyridin-2-yl)propyl)-5-(6-ethoxypyrazin-2-yl)thiazole-2-carboxamide]"
9,> 100,"CCOc1ccn2ncc(-c3cnc(C(=O)NCc4cc(NS(=O)(=O)C5CC5)ccn4)s3)c2c1 [I-170, N-((4-(cyclopropanesulfonamido)pyridin-2-yl)methyl)-5-(5-ethoxypyrazolo[1,5-a]pyridin-3-yl)thiazole-2-carboxamide]"
10,25 to 50,"CCOc1cncc(-c2ccc(C(=O)NCc3cc(NS(=O)(=O)C4CC4)ccn3)cn2)n1 [I-172, N-((4-(cyclopropanesulfonamido)pyridin-2-yl)methyl)-6-(6-ethoxypyrazin-2-yl)nicotinamide]"
11,5 to 25,"CCOc1cncc(-c2ccc(C(=O)NCc3cc(NS(=O)(=O)C4CC4)ccn3)cc2F)n1 [I-173, N-((4-(cyclopropanesulfonamido)pyridin-2-yl)methyl)-4-(6-ethoxypyrazin-2-yl)-3-fluorobenzamide]"
12,5 to 25,"CCOc1cncc(-c2ccc(C(=O)NCc3cc(NS(=O)(=O)C4CC4)ccn3)c(F)c2F)n1 [I-175, N-((4-(cyclopropanesulfonamido)pyridin-2-yl)methyl)-4-(6-ethoxypyrazin-2-yl)-2,3-difluorobenzamide]"
13,5 to 25,"CCOc1cncc(-c2cnc(C(=O)N[C@H](C)c3cc(NS(=O)(=O)C4CC4)ccn3)s2)n1 [I-176, (R)-N-(1-(4-(cyclopropanesulfonamido)pyridin-2-yl)ethyl)-5-(6-ethoxypyrazin-2-yl)thiazole-2-carboxamide]"
14,5 to 25,"CCOc1cncc(-c2cnc(C(=O)N[C@@H](C)c3cc(NS(=O)(=O)C4CC4)ccn3)s2)n1 [I-177, (S)-N-(1-(4-(cyclopropanesulfonamido)pyridin-2-yl)ethyl)-5-(6-ethoxypyrazin-2-yl)thiazole-2-carboxamide]"
15,25 to 50,"CCOc1cncc(-c2cnc(C(=O)NCc3ccnc(NS(=O)(=O)C4CC4)n3)s2)n1 [I-178, N-((2-(cyclopropanesulfonamido)pyrimidin-4-yl)methyl)-5-(6-ethoxypyrazin-2-yl)thiazole-2-carboxamide]"
16,5 to 25,"CCOc1cncc(-c2cnc(C(=O)NC3(c4cc(NS(=O)(=O)C5CC5)ccn4)CC3)s2)n1 [I-179, N-(1-(4-(cyclopropanesulfonamido)pyridin-2-yl)cyclopropyl)-5-(6-ethoxypyrazin-2-yl)thiazole-2-carboxamide]"
17,5 to 25,"CCOc1cncc(-c2cnc(C(=O)NCc3cncc(NS(=O)(=O)C4CC4)n3)s2)n1 [I-180, N-((6-(cyclopropanesulfonamido)pyrazin-2-yl)methyl)-5-(6-ethoxypyrazin-2-yl)thiazole-2-carboxamide]"
18,25 to 50,"O=C(NCc1cc(NS(=O)(=O)C2CC2)ccn1)c1ccc(-c2cnn3ccc(Cl)cc23)cc1F [I-181, 4-(5-chloropyrazolo[1,5-a]pyridin-3-yl)-N-((4-(cyclopropanesulfonamido)pyridin-2-yl)methyl)-2-fluorobenzamide]"
19,5 to 25,"CCOc1cncc(-c2cnc(C(=O)NC3(c4cc(NS(=O)(=O)C5CC5)ccn4)CCN(C)C3)s2)n1 (stereo not drawn) [I-182, N-(3-(4-(cyclopropanesulfonamido)pyridin-2-yl)-1-methylpyrrolidin-3-yl)-5-(6-ethoxypyrazin-2-yl)thiazole-2-carboxamide, formic acid salt]"
20,> 100,"CCOc1cncc(-c2cnc(C(=O)N[C@@H](CCN3CCCCC3)c3cccc(NS(=O)(=O)C(F)F)c3)s2)n1 [I-183, (S)-N-(1-(3-((difluoromethyl)sulfonamido)phenyl)-3-(piperidin-1-yl)propyl)-5-(6-ethoxypyrazin-2-yl)thiazole-2-carboxamide]"
21,5 to 25,"CCOc1cncc(-c2cnc(C(=O)N[C@H](CCN3CCCCC3)c3cccc(NS(=O)(=O)C(F)F)c3)s2)n1 [I-184, (R)-N-(1-(3-((difluoromethyl)sulfonamido)phenyl)-3-(piperidin-1-yl)propyl)-5-(6-ethoxypyrazin-2-yl)thiazole-2-carboxamide]"
22,50 to 100,"CCOc1cncc(-c2cnc(C(=O)N[C@@H](CCNC3CC3)c3cc(NS(=O)(=O)C4CC4)ccn3)s2)n1 [I-185, (S)-N-(1-(4-(cyclopropanesulfonamido)pyridin-2-yl)-3-(cyclopropylamino)propyl)-5-(6-ethoxypyrazin-2-yl)thiazole-2-carboxamide]"
23,5 to 25,"CCOc1cncc(-c2cnc(C(=O)N[C@H](CCNC3CC3)c3cc(NS(=O)(=O)C4CC4)ccn3)s2)n1 [I-186, (R)-N-(1-(4-(cyclopropanesulfonamido)pyridin-2-yl)-3-(cyclopropylamino)propyl)-5-(6-ethoxypyrazin-2-yl)thiazole-2-carboxamide]"
24,5 to 25,"CCOc1cncc(-c2cnc(C(=O)N[C@H](c3cccc(NS(=O)(=O)C(F)F)c3)[C@H]3CCOC3)s2)n1 [I-187, N-((S)-(3-((difluoromethyl)sulfonamido)phenyl)((R)-tetrahydrofuran-3-yl)methyl)-5-(6-ethoxypyrazin-2-yl)thiazole-2-carboxamide]"
25,5 to 25,"CCOc1cncc(-c2cnc(C(=O)N[C@H](c3cccc(NS(=O)(=O)C(F)F)c3)[C@@H]3CCOC3)s2)n1 [I-188, N-((S)-(3-((difluoromethyl)sulfonamido)phenyl)((S)-tetrahydrofuran-3-yl)methyl)-5-(6-ethoxypyrazin-2-yl)thiazole-2-carboxamide]"
26,≤ 5,"CCOc1cncc(-c2cnc(C(=O)N[C@@H](c3cccc(NS(=O)(=O)C(F)F)c3)[C@@H]3CCOC3)s2)n1 [I-189, N-((R)-(3-((difluoromethyl)sulfonamido)phenyl)((S)-tetrahydrofuran-3-yl)methyl)-5-(6-ethoxypyrazin-2-yl)thiazole-2-carboxamide]"
27,5 to 25,"CCOc1cncc(-c2cnc(C(=O)N[C@@H](c3cccc(NS(=O)(=O)C(F)F)c3)[C@H]3CCOC3)s2)n1 [I-190, N-((R)-(3-((difluoromethyl)sulfonamido)phenyl)((R)-tetrahydrofuran-3-yl)methyl)-5-(6-ethoxypyrazin-2-yl)thiazole-2-carboxamide]"
